Data from ChEMBL document CHEMBL1129670, “Synthesis and structure-activity relationships of N-propyl-N-(4-pyridinyl)-1H-indol-1-amine (besipirdine) and related analogs as potential therapeutic agents for Alzheimer's disease” (J Med Chem, 1996).

Key:
Mus musculus [1] = species on record: Mus musculus; test: animal or person
Description: Effective dose against administration in mice

Mus musculus [2] = test: Antagonistic activity against Scopolamine induced behavioral deficits in mice at dose 0.02 mg/kg sc; type: functional; details: route subcutaneous
[3] = biological target: Muscarinic acetylcholine receptor; type: cell membranes, Membrane
Description: Inhibition of [3H]quinuclidinyl benzilate (QNB) binding from rat forebrain membranes in the presence of Zn

[4] = biological target: T1, Adrenergic receptor alpha-2 (Rattus norvegicus, UniProt P22086+P19328+P22909); test: Inhibitory activity against [3H]clonidine binding to Alpha-2 adrenergic receptor in rat cortex
T1 sequence (P22086 whole entry): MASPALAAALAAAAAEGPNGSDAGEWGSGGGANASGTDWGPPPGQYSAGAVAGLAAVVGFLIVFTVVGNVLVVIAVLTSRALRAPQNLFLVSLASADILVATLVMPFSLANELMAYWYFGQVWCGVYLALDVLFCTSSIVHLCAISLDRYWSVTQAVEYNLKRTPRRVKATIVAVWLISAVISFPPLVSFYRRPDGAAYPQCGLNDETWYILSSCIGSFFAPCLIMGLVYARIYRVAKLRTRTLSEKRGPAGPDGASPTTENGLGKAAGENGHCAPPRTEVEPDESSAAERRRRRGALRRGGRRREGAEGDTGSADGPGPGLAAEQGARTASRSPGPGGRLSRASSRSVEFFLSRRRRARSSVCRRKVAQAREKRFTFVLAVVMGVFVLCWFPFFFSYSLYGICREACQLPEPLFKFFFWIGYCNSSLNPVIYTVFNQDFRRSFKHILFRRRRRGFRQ
T1 sequence (P19328 whole entry): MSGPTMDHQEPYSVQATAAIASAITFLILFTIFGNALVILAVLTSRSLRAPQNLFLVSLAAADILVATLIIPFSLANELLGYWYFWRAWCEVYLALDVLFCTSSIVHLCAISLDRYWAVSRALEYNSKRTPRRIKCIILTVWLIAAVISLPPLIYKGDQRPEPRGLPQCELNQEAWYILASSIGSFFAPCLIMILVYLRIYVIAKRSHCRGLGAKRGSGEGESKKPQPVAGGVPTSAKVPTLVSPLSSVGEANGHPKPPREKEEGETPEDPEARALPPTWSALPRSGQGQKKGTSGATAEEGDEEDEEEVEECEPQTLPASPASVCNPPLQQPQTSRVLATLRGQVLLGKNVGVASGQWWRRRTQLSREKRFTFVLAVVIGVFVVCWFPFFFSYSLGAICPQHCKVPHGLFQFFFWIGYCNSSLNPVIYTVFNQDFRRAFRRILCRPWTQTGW
T1 sequence (P22909 whole entry): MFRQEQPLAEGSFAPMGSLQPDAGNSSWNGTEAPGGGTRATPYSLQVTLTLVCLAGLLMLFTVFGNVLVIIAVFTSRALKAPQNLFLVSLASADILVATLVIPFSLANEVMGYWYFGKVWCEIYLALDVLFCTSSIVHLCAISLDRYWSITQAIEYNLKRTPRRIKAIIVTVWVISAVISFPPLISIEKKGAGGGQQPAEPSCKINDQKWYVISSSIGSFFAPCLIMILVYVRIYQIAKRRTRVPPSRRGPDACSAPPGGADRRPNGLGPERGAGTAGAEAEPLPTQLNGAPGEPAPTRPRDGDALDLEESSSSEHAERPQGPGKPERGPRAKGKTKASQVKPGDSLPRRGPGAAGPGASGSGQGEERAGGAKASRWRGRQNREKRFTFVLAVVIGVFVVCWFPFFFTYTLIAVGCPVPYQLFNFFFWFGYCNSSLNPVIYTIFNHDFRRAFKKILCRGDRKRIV

Mus musculus [5] = test: Antagonistic activity against Scopolamine induced behavioral deficits in mice at dose 0.08 mg/kg sc; type: functional; details: route subcutaneous
Acetylcholinesterase = biological target: T2, Acetylcholinesterase (Rattus norvegicus, UniProt P37136)
T2 sequence (P37136 whole entry): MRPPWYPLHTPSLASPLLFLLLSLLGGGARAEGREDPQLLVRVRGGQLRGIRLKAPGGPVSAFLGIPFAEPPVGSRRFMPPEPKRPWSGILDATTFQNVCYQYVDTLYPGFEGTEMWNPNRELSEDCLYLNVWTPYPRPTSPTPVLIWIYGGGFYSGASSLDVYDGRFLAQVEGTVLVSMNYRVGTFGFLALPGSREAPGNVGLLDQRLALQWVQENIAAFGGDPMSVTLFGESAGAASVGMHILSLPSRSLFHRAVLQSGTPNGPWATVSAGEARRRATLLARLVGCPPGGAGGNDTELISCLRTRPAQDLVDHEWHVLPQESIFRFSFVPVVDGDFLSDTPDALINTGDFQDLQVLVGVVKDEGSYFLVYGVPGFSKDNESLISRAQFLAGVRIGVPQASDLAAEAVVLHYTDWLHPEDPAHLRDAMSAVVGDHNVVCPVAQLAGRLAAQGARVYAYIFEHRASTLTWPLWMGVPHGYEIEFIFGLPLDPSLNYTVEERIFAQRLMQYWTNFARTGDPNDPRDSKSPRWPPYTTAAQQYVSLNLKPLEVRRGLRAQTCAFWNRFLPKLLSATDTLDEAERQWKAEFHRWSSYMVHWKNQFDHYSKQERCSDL
Description: Inhibitory activity against acetylcholinesterase in rat striatal preparation

Row | SMILES | ED50 (Mus musculus [1]) | Response (Mus musculus [2]) | IC50 [3] | IC50 [4] | Response (Mus musculus [5]) | IC50 (Acetylcholinesterase)
1 | CN(c1ccncc1)n1ccc2ccccc21 | 3.5 mg/kg | 33% | 5.1 µM | 0.024 µM | 33% | > 100 µM
2 | CCCN(c1ccncc1)n1ccc2ccccc21 [BESIPIRDINE] | 3.1 mg/kg | 24% | 0.94 µM | 0.33 µM | 33% | > 100 µM
3 | c1ccc2c(c1)ccn2Nc1ccncc1 | 3 mg/kg | 27% | 16 µM | 0.008 µM | 20% | > 100 µM
